Read-outs that look alike come from different tables or passages of the source.

The term EC50 denotes the concentration that produces a half-maximal response. Usually CC50 stands for the concentration giving 50% cytotoxicity.

In one data set the test system is T. cruzi trypomastigote. Briefly: Activity against trypomastigote forms of T. cruzi (resazurin viability, 24 h). It counts as cell-based, Trypanosoma cruzi (Y strain). The note with it: trypomastigotes, serial dilutions 1.7 to 150 μM; for EC50: Trypanosoma cruzi, read-out: T. cruzi Trypomastigote EC50 (μM) ± SD. As for the experimental part: (§1) NCTC cells (clone 929, ATCC) were cultured in RPMI-1640 supplemented with 10% of fetal bovine serum (FBS), at 37 °C within a 5% CO2-humidified incubator. To collect peritoneal macrophages, the abdominal cavity of female BALB/c mice was rinsed with an RPMI-1640 medium, containing 10% FBS. These macrophages were then cultured overnight at 37 °C in a 5% CO2-humidified incubator. Trypanosoma cruzi trypomastigotes (Y strain) were maintained within Rhesus monkey kidney epithelial cells (LLC-MK2) cells using an RPMI-1640 medium supplemented with 2% FBS, and the incubation took place at 37 °C with 5% CO2 and humidity.
Tests of the activity from compounds 1–8 against the trypomastigote form of T. cruzi was performed, according to procedures previously reported. Trypomastigotes, in a concentration of 1 × 10^6 parasites/well, were seeded in 96-well plates and incubated with the tested compounds, alongside the standard drug benznidazole, in serial dilutions ranging from 1.7 to 150 μM, for 24 h at 37 °C in a 5% CO2 incubator. Subsequently, 20 μL of 10% resazurin was added, in order to determine cell viability. Absorbance was read in a plate spectrofluorometer Filter Max F5 Multi-Mode Microplate Reader at 570 nm. Untreated cells were used as negative controls, and cells treated with benznidazole were used as positive controls. The 50% effective concentration (EC50) against trypomastigote forms was determined by the regression of a sigmoid dose–response curve expressed in μM.
(§2) The CC50 and EC50 values were derived through the analysis of sigmoidal dose–response curves using GraphPad Prism 6.0 software. The samples were subjected to duplicate testing, and the experiments were replicated a minimum of two times.

Data set [1] can be described thus: Cytotoxicity against mammalian NCTC cells (MTT assay, 48 h). It counts as cell-based. The note with it: mouse, NCTC murine fibroblasts, highest tested concentration 200 μM, read-out: NCTC Mammalian Cell CC50 (μM) ± SD. As for the experimental part:
as §1
The determination of CC50 (50% cytotoxic concentration) values for compounds 1–8 was conducted using NCTC cells (L929 clone). These cells were seeded at a density of 6 × 10^4 cells per well in 96-well plates (Thermo Fisher). The cells were then exposed to a series of compound dilutions, ranging from 200 to 1.56 µM, and incubated for 48 h at 37 °C within a 5% CO2-equipped incubator. The viability of the cells and CC50 values were determined using 3-(4,5-dimethylthiazol-2-yl)-2,5-diphenyltetrazolium bromide (MTT) assay. Subsequently, the absorbance was measured at 570 nm using the FilterMax F5 instrument from Molecular Devices. The selectivity index (SI) was determined as the ratio between the CC50 against NCTC cells and the EC50 against trypomastigotes or amastigotes.
as §2
A general note: Tetrazolium dyes change colour on reduction, which living cells bring about.

The test system of the next data set is T. cruzi amastigote. Put plainly: Activity against intracellular amastigotes of T. cruzi within infected macrophages (Giemsa, light microscope, 48 h). The note with it: for EC50: Trypanosoma cruzi, Peritoneal macrophage, in Mus musculus, read-out: T. cruzi Amastigote EC50 (μM) ± SD. Type of data set: cell-based, Trypanosoma cruzi (Y strain).
Description: The experimental animals were sourced from the animal breeding facility located at Instituto Adolfo Lutz in São Paulo State, Brazil. Peritoneal macrophages were extracted from female BALB/c mice for intracellular experiments, while male BALB/c mice were utilized to sustain T. cruzi. These animals were provided unlimited access to both water and food, residing in sterilized enclosures within a meticulously regulated environment. All procedures were previously approved by the Animal Ethics Commission of Instituto Adolfo Lutz.
as §1
The EC50 values for compounds 1–8 against intracellular amastigotes of T. cruzi were determined within infected macrophages. Macrophages, obtained as detailed in item 4.9, were seeded onto a 16-well chamber slide (NUNC plate, Thermo Fisher, Waltham, MA, USA) at a density of 1 × 10^5 cells per well. Subsequently, these cell cultures were incubated overnight at 37 °C in a humidified incubator containing 5% CO2. Trypomastigotes, previously derived from infected LLC-MK2 cells, underwent washing in an RPMI-1640 medium, were quantified, and were then employed to infect the macrophages at a concentration of 1 × 10^6 trypomastigotes per well. Following a 2 h infection period, any non-internalized trypomastigotes were eliminated by rinsing with an RPMI medium. The compounds were subsequently exposed to the infected macrophages for 48 h at 37 °C within a 5% CO2 environment. A range of serial dilutions (ranging from 30.00 to 1.87 μM) were used for the incubation of compounds, and benznidazole was utilized as the standard drug. At the final stage of the experiment, the chamber slides were fixed using MeOH and stained with Giemsa before being assessed under a light microscope (Thermo EVOS M5000).
as §2

[2] abbreviates: NCTC cells (clone L929) fibroblasts.
Setting [3] is: intracellular amastigotes in BALB/c peritoneal macrophages, serial dilutions 30.00 to 1.87 μM.

With `COC1C[C@@H](CC[C@@H]2[C@@H](C)CC=C3C(CO)(CO)CCC[C@@]32C)CO1` (relative stereo) [Compound 1, 15,16-epoxy-18,19-dihydroxy-16-methoxy-syn-labd-5-ene], the EC50 with T. cruzi trypomastigote was determined as 20.1 ± 1.5 µM. In data set [1] (setting [2]), the CC50 at 48 h was above 200 µM. In the data set with T. cruzi amastigote (setting [3]), the “T. cruzi Amastigote EC50 (μM) ± SD” value is “inactive”.

With `O=C(Cn1ccnc1[N+](=O)[O-])NCc1ccccc1` [Benznidazole, benznidazole, reference compound], the EC50 in the data set with T. cruzi trypomastigote was 18.7 ± 4.1 µM; in the data set with T. cruzi amastigote (setting [3]) it was 5.5 ± 2.2 µM. Also, the cytotoxic concentration (CC50) at 48 h in data set [1] (setting [2]) was above 200 µM.

In the case of `C[C@H]1CC=C2C(CO)(CO)CCC[C@]2(C)[C@@H]1CC[C@H](CCO)COC(=O)/C=C/c1ccc(O)cc1` [Compound 2, gaudichaudol C], in the data set on T. cruzi trypomastigote, the EC50 stood at 2.9 ± 1.5 µM. Moreover, the CC50 at 48 h in data set [1] (setting [2]) is above 200 µM. For the same compound, the “T. cruzi Amastigote EC50 (μM) ± SD” value with T. cruzi amastigote (setting [3]) is “inactive”.

Regarding `C=C1C[C@@]23CC[C@H]4[C@@](C)(CCC[C@@]4(C)C(=O)O)[C@@H]2CC[C@@H]1C3` [Compound 3, Ent-kaur-16-en-19-oic acid], the EC50 in the data set with T. cruzi trypomastigote came out at 10.6 ± 4.4 µM. Also, in data set [1], the CC50 at 48 h was above 200 µM. Further, in the data set with T. cruzi amastigote (setting [3]), the “T. cruzi Amastigote EC50 (μM) ± SD” value was “inactive”.

For `COc1c(O)cc2oc(-c3ccc(O)cc3)cc(=O)c2c1O` [Compound 4, Hispidulin], the “T. cruzi Trypomastigote EC50 (μM) ± SD” value in the data set with T. cruzi trypomastigote is recorded as “no activity”. The 50% cytotoxic concentration (CC50) at 48 h in data set [1] is above 200 µM. In addition, the EC50 in the data set with T. cruzi amastigote turned out to be 12.8 ± 0.3 µM.

In the case of `COc1c(O)cc2oc(-c3ccc(O)c(O)c3)cc(=O)c2c1O` [Compound 5, Eupafolin], in the data set on T. cruzi trypomastigote, the “T. cruzi Trypomastigote EC50 (μM) ± SD” value is recorded as “no activity”. Besides, the EC50 in the data set on T. cruzi amastigote (setting [3]) was 2.7 ± 0.2 µM.

The record behind these values is PMC10780275, “Evaluation of Anti-Trypanosoma cruzi Activity of Chemical Constituents from Baccharis sphenophylla Isolated Using High-Performance Countercurrent Chromatography” (Molecules, 2023).
